Measured values from patent US5358936A, “Anionic furanose derivatives, methods of making and using the same” (Gordon; Paul, priority 1991, dated 1994).
Structures can show the parent of a compound that is named as a salt.

Assays:
rat paw [1] = assay: Post-ischemic reperfusion paw swelling (Example 22); assay type: in vivo, Sprague Dawley male rats; settings: for % Change as a result of treatment / Paw swelling, Mean ± SE: another study; for Paw swelling, Mean ± SE: i.p. 45 minutes prior; for Post-ischemic reperfusion 30 minute paw swelling, Mn ± SE: P < 0.02
Source text: This important disease model is used to evaluate aspects of tissue injury that occur in heart attack, or myocardial infarction, and stroke. Under these conditions, a significant period of injury can occur after blood flow has been restored, during the period of reperfusion.
To produce ischemia, blood flow to the left hind foot was largely interrupted by application of a tourniquet made up of two size 18 rubber bands wound eight times around the leg just behind the heel. […] Both application and removal of tourniquet were carried out under ether anesthesia. Injury was equated with organ swelling, which was assayed by measurement of the dorsoventral foot diameter with a Schnelltaster caliper, just before application of the tourniquet and at various times following tourniquet removal, during the reperfusion period.
Rats employed were Sprague Dawley males, weighing 240-280 grams. Drug comparisons were made here employing measurements 30 minutes into the reperfusion period. The widely studied drug allopurinol, a xanthine oxidase inhibitor and a free radical scavenging agent, used in the treatment of gout, and widely used to suppress experimental post-ischemic reperfusion injury was used as an experimental treatment standard. In studies below, allopurinol and all new drugs were given intraperitoneally 45-60 minutes prior to application of the tourniquet. Data are reported as the mean swelling (Mn)±standard error (SE). […] Group n is 5 or 6.
In another study, drug comparisons were made at various times after the reperfusion period. In this study, control and drug treatment groups were as above.

rat hind paws = assay: Paw swelling provoked by zymosan-activated serum or normal serum (Example 23); assay type: in vivo; settings: for Paw Swelling, ZAS (MPO study): 45 minutes before ZAS, ZAS alone 34.58 ± 2.45; for Paw Swelling, ZAS (MPO study) / Paw Swelling, ZAS: P < 0.01; for Swelling Change, ZAS / Swelling Change, normal serum (NS): 50 mg/kg oral
Procedure: For the present studies, zymosan-activated serum (ZAS) was made by incubating reconstituted lyophilized rat serum with 10 mg/ml zymosan A for one hour at 37° C., and then microfiltering to remove the zymosan.
In the first study, distilled water vehicle or 50 mg/kg Compound III in water were given by oral gavage to 9 control and 9 drug-treated adult male rats, respectively, and 90 minutes later the dorsoventral diameter of the hind feet were determined by Schnelltaster caliper. Sera [0.1 ml ZAS or 0.1 ml normal serum (NS)] were thereafter injected into opposite hind paws of the same rat under ether anesthesia. Below are given the paw swellings that developed at 2 and 3 hours, in response to ZAS and to normal serum, in the absence and presence of drug treatment. Data are reported previously.
The relationship of neutrophil infiltration to ZAS-induced swelling, and its drug-inhibition, was evaluated in another study. In this study, all procedures employing ZAS and Compound III were carried out as above, except that, Compound III was administered 45 minutes before ZAS, and standardized samples of the swollen footpads were removed and subjected to analysis for myeloperoxidase activity (MPO), according to the method of Lundberg et al., Inflammation, 7:247, (1983). MPO is a neutrophil-specificenzyme, and its assay is the most widely used method of identifying the degree of neutrophil participation in organ pathology.

stomach ulcers = assay: Gastric ulcers in rats with corona virus infection treated with indomethacin (Example 26); assay type: in vivo, rat
Source text: Corona virus is a non-lethal upper respiratory viral pathogen that not infrequently infects rat colonies. It is a type of rodent coryza or catarrh, the equivalent of a disease that falls somewhere between human influenza and a severe common cold. The animals of this study suffered from this condition, a circumstance which was evident by observation, and which was confirmed by virological diagnosis at the Biological Resources Laboratory of the University of Illinois at Chicago. Since stress is a common component of peptic ulcer development in both animals and man, it was concluded that this feature of the status of these experimental animals rendered them appropriate for an ulcer study.
In this study, animals were not food deprived and were divided into treatment groups such that 15 rats received 30 mg/kg indomethacin alone (in water by oral gavage), 14 rats received indomethacin plus an injection of 25 mg/kg cimetidine subcutaneously, and 7 rats received indomethacin plus subcutaneous injection of 17.5 mg/kg of Compound III.
All animals were sacrificed by ether euthanasia 24 hours later and their stomachs evaluated for ulcer pathology. In this study ulcers were not hemorrhagic. Results are shown below as the average number of stomach ulcers per stomach.

lung gross pathology = assay: Generalized Schwartzmann Reaction (Example 28 A); assay type: in vivo, rabbit; settings: P < 0.01
Procedure: The Generalized Schwartzmann Reaction (GSR) is a pathology in which two intravenous injections of non-lethal amounts of bacterial endotoxin, when separated by 8 to 36 hours, promote thrombotic and tissue-destructive processes in the lung, producing disseminated pulmonary thrombosis and necrosis in otherwise untreated rabbits.
A. In this study, eight six-week old salmonella-free male rabbits each weighing about 1.5 kg were injected IV with saline vehicle and eight similar rabbits were injected IV with 50 mg/kg of Compound III in the same vehicle. One hour later, all of the animals were injected IV with 100 μg of E. coli lipopolysaccharide (LPS; Sigma Chemical Co.) on day one and with the same amount of LPS on day two, twenty hours later. Animals were evaluated for clinical signs at 24 and 48 hours, and were sacrificed for organ evaluation 48 hours after the second endotoxin injection.
In assessing gross pathology, separate scores were developed in four categories and these were then summed and added, in one instance, to a score for clinical signs.
Gross Pathology Categories
(1) Surface redness, diffuse or mottled (reflecting hyperemia, hemostasis).+2 to +4.
(2) Discrete focal surface lesions (reflecting thrombosis without disruption of gross pulmonary architecture).

rat paw [2] = assay: Rat paw edema provoked by neutral proteases (Example 32); assay type: in vivo; settings: two hours; SOD IV; Compound III IP and IV
Procedure: Both tryptic activity and collagenase activity are components of the tissue-injuring neutral proteinase activities secreted by neutrophils. Collagenase activity has also been associated with injury to cartilage; and, in another context, with the micro-injury to blood vessels that permits the extravasation and metastasis of, and by, tumor cells.
The effects of Compound III on rat and mouse paw edema as provoked by injection of these enzymes were evaluated. SOD injected IV and Compound III injected IP and IV at zero time, (as in Example 25), inhibited edema at two hours by from 33-40 percent, in both species. […] Both drug effects were significant by t test, SOD at P<0.05 and Compound III at P<0.01.

[3] = Dissolution and buffering of suspensions, HCl titration (Example 16); settings: HCl titration
Source text: Note that the term "apparent pK" in this context is meant to encompass the maximization of buffering that come both from solid-state dissolution and its titration as solute.

For `CC1(C)O[C@H]2O[C@H]([C@@H](COS(=O)(=O)O)OS(=O)(=O)O)[C@H](OS(=O)(=O)O)[C@H]2O1` [Compound III, 1,2-O-(2-Propylidene)-3,5,6-tri-O-sulfo-α-D-glucofuranose, tripotassium salt], which “% Change as a result of treatment” value (rat paw [1]; reperfusion time 20 mins., i.p.) is on record?
The value was -46%.

And the “Paw swelling, Mean ± SE” value (rat paw [1]; reperfusion time 20 mins., control 8.20 ± 1.02)?
Its value is 4.60 ± 0.40 0.1 mm.

And the “% Change as a result of treatment” value (rat paw [1]; reperfusion time 30 mins., i.p.)?
The value was -36%.

What about the “Paw swelling, Mean ± SE” value (rat paw [1]; reperfusion time 30 mins., control 6.60 ± 0.87) of the same compound?
Its value is 4.20 ± 0.37 0.1 mm.

And the “inhibition of ischemic rat paw edema” value (rat paw [1]; oral treatment route, after 20 minutes)?
Its value is 44%.

And the “Swelling change as a result of treatment” value (rat paw [1]; study A, 30 minutes reperfusion, 0.2 mg/kg i.p.)?
The value was -53%.

What about the “Post-ischemic reperfusion 30 minute paw swelling, Mn ± SE” value (rat paw [1]; study A, Compound III 0.2 mg/kg i.p. 45-60 minutes before tourniquet, control 12.7 ± 0.98) of the same compound?
The value was 6.0 ± 0.32 0.1 mm.

And the “Swelling change as a result of treatment” value (rat paw [1]; study B, 30 minutes, i.p., Compound III 0.2 mg/kg, allopurinol 20 mg/kg)?
Its value is -40%.

And the “Post-ischemic reperfusion 30 minute paw swelling, Mn ± SE” value (rat paw [1]; study B, i.p., Compound III 0.2 mg/kg, allopurinol 20 mg/kg, control 20.5 ± 0.76)?
The value was 12.2 ± 0.70 0.1 mm.

And the “Post-ischemic reperfusion 30 minute paw swelling, Mn ± SE” value (rat paw [1]; study C, 0.2 mg/kg i.p., control 18.4 ± 0.54)?
The value was 10.2 ± 0.28 0.1 mm.

What about the “Swelling change as a result of treatment” value (rat paw [1]; study C, 30 minutes, 0.2 mg/kg i.p.) of the same compound?
Its value is -45%.

And the “Paw Swelling, ZAS (MPO study)” value (rat hind paws; 17 mg/kg, n = 6)?
Its value is 16.83 ± 2.12 0.1 mm.

And the “Paw Swelling, ZAS (MPO study)” value (rat hind paws; 50 mg/kg, n = 12)?
The value was 15.25 ± 3.99 0.1 mm.

What about the “Paw Swelling, ZAS” value (rat hind paws; 2 hours post-ZAS, 50 mg/kg oral gavage 90 minutes before, control 27.22 ± 1.97) of the same compound?
The value was 10.78 ± 1.94 0.1 mm.

What about the “Swelling Change, ZAS” value (rat hind paws; 2 hours) of the same compound?
The value was -60%.

And the “Swelling Change, normal serum (NS)” value (rat hind paws; 2 hours)?
Its value is -32%.

And the “Paw Swelling, normal serum (NS)” value (rat hind paws; 2 hours, 50 mg/kg oral gavage, control 11.22 ± 1.28)?
The value was 7.67 ± 1.41 0.1 mm.

What about the “Paw Swelling, ZAS” value (rat hind paws; 3 hours post-ZAS, 50 mg/kg oral gavage, control 28.89 ± 2.48) of the same compound?
The value was 16.11 ± 2.94 0.1 mm.

And the “Swelling Change, ZAS” value (rat hind paws; 3 hours)?
Its value is -44%.

What about the “Swelling Change, normal serum (NS)” value (rat hind paws; 3 hours) of the same compound?
The value was -17%.

What about the “Paw Swelling, normal serum (NS)” value (rat hind paws; 3 hours, 50 mg/kg oral gavage, control 11.44 ± 1.55) of the same compound?
Its value is 9.44 ± 1.28 0.1 mm.

And the “ulcer reduction compared with cimetidine, in words” value (stomach ulcers; 17.5 mg/kg Compound III vs 25 mg/kg cimetidine)?
Its value is “greater using Compound III than cimetidine”.

What about the “Percent Inhibition of ulcer frequency” value (stomach ulcers; indomethacin 30 mg/kg oral, cimetidine 25 mg/kg s.c. or Compound III 17.5 mg/kg s.c.) of the same compound?
Its value is 66%.

What about the “Ulcer Frequency per stomach, Mn ± SE” value (stomach ulcers; indomethacin 30 mg/kg oral, cimetidine 25 mg/kg s.c. or Compound III 17.5 mg/kg s.c. where given, P<0.02) of the same compound?
Its value is 0.86 ± 0.46 Per Stomach.

And the “Mean Pathology score” value (lung gross pathology; 50 mg/kg IV one hour before LPS, untreated 8.00 ± 1.02)?
Its value is 2.25 ± 1.10.

And the “Drug Effect on mean pathology score” value (lung gross pathology; 50 mg/kg IV)?
The value was -72%.

And the inhibition of edema (rat paw [2])?
The inhibition of edema was 33-40%.

And the “buffering action, in words” value [3]?
Its value is “no buffering power”.
